In patent US20050054680A1, “Agonists and antagonists of 5h3-like receptors of invertebrates as pesticides” (priority 2001, published 2005):
“Also recorded” adds a separate entry of the source. Like-named read-outs stand apart in the source and are kept apart here.

Legend:
[1] = test system: C. elegans of the Bristol N2 strain; assay: Automated feeding assay (bead ingestion, pharyngeal pumping); format: in vivo, Caenorhabditis elegans; details: for Effect of 0.325 mM compound on serotonin-stimulated (0.325 mM) bead ingestion: 0.325 mM compound plus 0.325 mM serotonin; for Effect of 0.325 mM compound on bead ingestion: no added serotonin; for IC50 (inhibitory concentration 50%) for bead ingestion / IC50: estimated from log dose response curves (FIG. 2); for IC50: read-out: IC50 (inhibitory concentration 50%) for bead ingestion
Description: An automated screening assay has been developed and described in the present Applicants' co-pending International patent application No. PCT/AU00/01476 (WO 01/40500). Using the screening assay, twenty novel tropanyl ester compounds as well as tropanyl dichlorobenzoate were screened for nematicidal activity.
The assay used was essentially that described in WO 01/40500 with minor modifications. The protocol was as follows:
(1.) Plate Culture. C. elegans of the Bristol N2 strain (Brenner, 1974) were cultured at room temperature on HMS174 E. coli bacteria (Campbell et al., 1978) spread on a 150 mm diameter petri dish containing enhanced NGM 1.7% (w/v) (Avery and Horvitz, 1990) agar until a good population of adult nematodes was present, but food reserves had not been exhausted.
(2.) The nematodes were collected by washing each plate with 10 mL and then 5 mL of M9 buffer plate and filtering over a 20 μm nylon mesh (Nytal—Catalogue no. BCNY-HDO02-20) to retain adult nematodes. The nematodes from 7-8 of these 150 mm plates were collected together and placed on a 63 μm mesh filter (Nytal—product code PA-25-43) and washed with 200-250 mL of M9 buffer or MilliQ water. This procedure allows the passage of nematodes whilst retaining larger debris. Finally the nematodes were collected over a 20 μm mesh.
(3.) Adult nematodes were collected from the mesh using a pasteur pipette and allowed to settle in an eppendorf tube at 1×g for 10 minutes. This packed volume was used to calculate quantities of nematodes for experiments and assays, although nematodes were resuspended in 2-10 volumes of M9 buffer for transfer. Quantitative transfers of nematodes were performed using a Gilson Pipetman P200 or equivalent and a yellow tip with 5 mm cut off the sharp end.
(4.) Assays were performed in 24 well tissue-lture clusters (Nunc multidish). The final assay volume was 230 μL comprising the following sequential additions: • (i) M9 buffer—sufficient to bring the final volume to 230 μL • ([…]) Any other pharmacological agents—≦1.5 μL of drug in DMSO (or water) • (iv) Nematodes—150 μL of a 10% (v/v) stock in M9 • (v) Fluorescent beads—23 μL of a 1% w/v solution in M9.
Where serotonin or other pharmacological agents were omitted, the volume was adjusted with M9 buffer. Control experiments included 1.5 μL of DMSO except in the case of ondansetron, which was added from an aqueous stock.
The fluorescent beads were 1.30 μm uniformly dyed microsphere beads with a hydrophilic surface-coating. The fluorescence excitation maximum was 420 nm and the emission maximum was 485 nm (catalogue code FC04F, carboxylate-modified polystyrene/polyvinyl copolymer, manufactured and supplied by Bangs Laboratories, Inc. 9025 Technology Drive, Fishers, INDIANA 46038-2886, USA).
(5.) The nematodes were incubated for 60 minutes after the addition of the fluorescent beads at room temperature (≈21° C.) without shaking. The assay was terminated by the addition of 20 μL of 100 mM sodium azide.
(6.) Two aliquots of 100 μl each were transferred from each well of the 24 well cluster to a pair of wells in a pre-blocked mesh-bottomed plate (see below for details of the mesh-bottomed plate) and the buffer/bead suspension was immediately aspirated away through the filter mesh using a Millipore Multiscreen vacuum manifold.
(7.) A total of eight washing steps were performed. Each of the first five washes used 200 μL of 1%(w/v) sodium lauryl sulphate (SDS—Sigma) in M9 buffer. The third and fifth washes involved pipetting the solution up and down in the wells of the plate ten times each wash. The SDS washes were followed by three washes with 200 μL of M9 buffer only. At the end of each washing step, solutions were aspirated away through the mesh using a Millipore Multiscreen vacuum manifold. […]

nematode C. elegans = details: cited from earlier work
insects = details: in vivo; cited from earlier work
[2] = as summarised in the background, no concentration given
[3] = in the presence of 1 mM serotonin
[4] = Caenorhabditis elegans, in the presence of 1 mM serotonin

| SMILES | Effect of 0.325 mM compound on serotonin-stimulated (0.325 mM) bead ingestion [1] | Effect of 0.325 mM compound on bead ingestion [1] | also measured |
| --- | --- | --- | --- |
| COC(=O)[C@H]1CC[C@H](C(=O)OC2C[C@H]3CC[C@@H](C2)N3C)CC1 (relative stereo) [DCP-45235 (15), trans-cyclohexane-1,4-dicarboxylic acid methyl ester tropan-3-yl ester] | no effect/reverses | no effect |  |
| Cc1[nH]c2ccc(O)cc2c1CCN.Cl [2-methyl-5-hydroxytryptamine, 2-methyl-5-hydroxytryptamine hydrochloride] |  |  | Effect on locomotion (nematode C. elegans; 3 mM): did not inhibit locomotion; Effect on pharyngeal pumping (nematode C. elegans; 3 mM): strongly stimulated; Effect on pharyngeal pumping (nematode C. elegans; [2]): strongly and specifically stimulated |
| CN1[C@@H]2CC[C@H]1CC(OC(=O)c1ccccc1)C2 (stereo partly shown) [DCP-45221 (1), benzoic acid tropan-3-yl ester] | potentiates marginally | stimulates marginally |  |
| CN1[C@@H]2CC[C@H]1CC(OC(=O)c1ccccc1Cl)C2 (stereo partly shown) [DCP-45222 (2), 2-chloro-benzoic acid tropan-3-yl ester] | no effect | no effect |  |
| CN1[C@@H]2CC[C@H]1CC(OC(=O)c1cccc(CCl)c1)C2 (stereo partly shown) [DCP-45223 (3), 3-chloromethyl-benzoic acid tropan-3-yl ester] | no effect | no effect |  |
| CN1[C@@H]2CC[C@H]1CC(OC(=O)c1cccc(Cl)c1)C2 (stereo partly shown) [DCP-45224 (4), 3-chloro-benzoic acid tropan-3-yl ester] | strongly reversed; also recorded: reverses strongly | no effect | IC50 (inhibitory concentration 50%) for bead ingestion [1, 3]: impossible to estimate |
| CN1[C@@H]2CC[C@H]1CC(OC(=O)c1ccc(Cl)cc1)C2 (stereo partly shown) [DCP-45225 (5), 4-chloro-benzoic acid tropan-3-yl ester] | no effect | no effect |  |
| CN1[C@@H]2CC[C@H]1CC(OC(=O)c1cc(F)ccc1F)C2 (stereo partly shown) [DCP-45226 (6), 2,5-difluoro-benzoic acid tropan-3-yl ester] | reverses marginally | no effect |  |
| CN1[C@@H]2CC[C@H]1CC(OC(=O)c1c(F)cccc1F)C2 (stereo partly shown) [DCP-45227 (7), 2,6-difluoro-benzoic acid tropan-3-yl ester] | reverses marginally | no effect |  |
| CN1[C@@H]2CC[C@H]1CC(OC(=O)c1ccc(Cl)c(Cl)c1)C2 (stereo partly shown) [DCP-45228 (8), 3,4-dichloro-benzoic acid tropan-3-yl ester] | strongly reversed; also recorded: reverses strongly | reduced; also recorded: inhibits | Implied IC50 without serotonin (extrapolated from IC50 ratio, not measured) ([1]; Caenorhabditis elegans, in the absence of added serotonin, implied from the tropanyl dichlorobenzoate IC50 ratio with and without serotonin, read-out: IC50 and therefore chronic EC50 implied from differential factor): ~6 µM |
| CN1[C@@H]2CC[C@H]1CC(OC(=O)c1ccccc1F)C2 (stereo partly shown) [DCP-45229 (9), 2-fluoro-benzoic acid tropan-3-yl ester] | strongly reversed; also recorded: reverses marginally | no effect | Anomalous activity in dose response for bead ingestion ([1]; in the presence of 1 mM serotonin, at lower doses): very strong stimulatory effects; IC50 (inhibitory concentration 50%) for bead ingestion [1, 3]: impossible to estimate |
| CC(Oc1ccccc1)C(=O)OC1C[C@H]2CC[C@@H](C1)N2C (stereo partly shown) [DCP-45230 (10), 2-phenoxy-propionic acid tropan-3-yl ester] | reverses marginally | inhibits |  |
| CN1[C@@H]2CC[C@H]1CC(OC(=O)Cc1ccccc1)C2 (stereo partly shown) [DCP-45231 (11), phenyl-acetic acid tropan-3-yl ester] | reverses marginally | inhibits |  |
| COC(=O)C12C3C4C1C1C2C3C41C(=O)OC1C[C@H]2CC[C@@H](C1)N2C (stereo partly shown) [DCP-45232 (12), cubane-1,4-dicarboxylic acid methyl ester tropan-3-yl ester] |  | no effect | Effect of 0.325 mM compound on serotonin-stimulated (0.325 mM) bead ingestion ([1]; observed with an unpurified mixture): reverses marginally^1 |
| CN1[C@@H]2CC[C@H]1CC(OC(=O)C1CC1)C2 (stereo partly shown) [DCP-45233 (13), cyclopropanecarboxylic acid tropan-3-yl ester] | potentiates marginally | no effect |  |
| CN1[C@@H]2CC[C@H]1CC(OC(=O)C1CCC1)C2 (stereo partly shown) [DCP-45234 (14), cyclobutanecarboxylic acid tropan-3-yl ester] | no effect | no effect |  |
| COC(=O)c1ccc(C(=O)OC2C[C@H]3CC[C@@H](C2)N3C)cc1 (stereo partly shown) [DCP-45236 (16), terephthalic acid methyl ester tropan-3-yl ester] | no effect | no effect |  |
| COC(=O)c1cccc(C(=O)OC2C[C@H]3CC[C@@H](C2)N3C)c1 (stereo partly shown) [DCP-45237 (17), isophthalic acid methyl ester tropan-3-yl ester] | no effect | no effect |  |
| COC(=O)c1ccccc1C(=O)OC1C[C@H]2CC[C@@H](C1)N2C (stereo partly shown) [DCP-45238 (18), phthalic acid methyl ester tropan-3-yl ester] | strongly reversed; also recorded: reverses markedly | no effect |  |
| COC(=O)c1cncc(C(=O)OC2C[C@H]3CC[C@@H](C2)N3C)c1 (stereo partly shown) [DCP-45239 (19), pyridine-3,5-dicarboxylic acid methyl ester tropan-3-yl ester] | potentiates marginally | no effect |  |
| CN1[C@@H]2CC[C@H]1CC(OC(=O)c1c[nH]c3ccccc13)C2 (stereo partly shown) [DCP-45240 (20), 1H-indole-3-carboxylic acid tropan-3-yl ester] | reverses markedly | no effect | IC50 [1, 4]: 316 µM |
| Cc1nccn1CC1CCc2c(c3ccccc3n2C)C1=O (stereo not shown) [ondansetron] |  |  | Effect on pharyngeal pumping (nematode C. elegans; [2]): profoundly inhibited; Effect on serotonin-stimulated rate of pharyngeal pumping (nematode C. elegans; drug 0.325 mM, serotonin 0.325 mM): antagonised the stimulatory effect; IC50 [1, 4]: 562 µM; Detrimental effects in insects (insects): significant detrimental effects, including some mortality |
